Test system: 349418-098-R-PDC complex spheroid growth
Test: Anticancer human tumor 349418-098-R-PDC patient-derived lung adenocarcinoma cell line growth inhibition [AhR]
Settings: for IC50: curve of first compound; for viability, T/C: stronger effect = lower value
In short: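 Complex tumor spheroids co-cultured with HUVEC and human MSC stroma; AhR antagonists tested in combination with standard-of-care and investigational agents. Top concentration at or near clinical Cmax (else 10 microM), half-log dilutions; growth expressed as percent test/control.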
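Further: spheroids exposed to agents for seven days before luminescence viability read.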
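Wherever viability, T/C is given: spheroids also contain HUVEC endothelial cells and human MSC stroma.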

Compound `CCc1c2c(nc3ccc(O)cc13)-c1cc3c(c(=O)n1C2)COC(=O)[C@]3(O)CC` + Cc1ccccc1N=Nc1ccc(NC(=O)c2ccnn2C)c(C)c1 has an IC50 (second compound 0.1 µM) of 3.8 nM, an IC50 (second compound 0.316 µM) of under 0.949 nM and an IC50 (second compound 1 µM) of under 0.949 nM. The IC50 (second compound 3.16 µM) was under 0.949 nM, the IC50 (second compound 10 µM) was under 0.949 nM and the viability, T/C (second compound 0.1 µM, first compound 0.000949 µM) was 75.5%. It also gave a viability, T/C (second compound 0.1 µM, first compound 0.003 µM) of 57.2%, a viability, T/C (second compound 0.1 µM, first compound 0.00949 µM) of 22.3% and a viability, T/C (second compound 0.1 µM, first compound 0.03 µM) of 12.3%. It also gave a viability, T/C (second compound 0.1 µM, first compound 0.0949 µM) of 8.18%, a viability, T/C (second compound 0.1 µM, first compound 0.3 µM) of 7.18% and a viability, T/C (second compound 0.316 µM, first compound 0.000949 µM) of 44.2%. For the same compound, the viability, T/C (second compound 0.316 µM, first compound 0.003 µM) was 32.8%, the viability, T/C (second compound 0.316 µM, first compound 0.00949 µM) was 21% and the viability, T/C (second compound 0.316 µM, first compound 0.03 µM) was 9.78%. The viability, T/C (second compound 0.316 µM, first compound 0.0949 µM) was 7.84%, the viability, T/C (second compound 0.316 µM, first compound 0.3 µM) was 5.78% and the viability, T/C (second compound 1 µM, first compound 0.000949 µM) was 29.9%. For the same compound, the viability, T/C (second compound 1 µM, first compound 0.003 µM) was 27.3%, the viability, T/C (second compound 1 µM, first compound 0.00949 µM) was 19.7% and the viability, T/C (second compound 1 µM, first compound 0.03 µM) was 10.3%. It also gave a viability, T/C (second compound 1 µM, first compound 0.0949 µM) of 7.94%, a viability, T/C (second compound 1 µM, first compound 0.3 µM) of 6.46% and a viability, T/C (second compound 3.16 µM, first compound 0.000949 µM) of 34.6%. The viability, T/C (second compound 3.16 µM, first compound 0.003 µM) was 33.5%, the viability, T/C (second compound 3.16 µM, first compound 0.00949 µM) was 15.8% and the viability, T/C (second compound 3.16 µM, first compound 0.03 µM) was 10%. It also gave a viability, T/C (second compound 3.16 µM, first compound 0.0949 µM) of 7.13%, a viability, T/C (second compound 3.16 µM, first compound 0.3 µM) of 6.47% and a viability, T/C (second compound 10 µM, first compound 0.000949 µM) of 37.7%. The viability, T/C (second compound 10 µM, first compound 0.003 µM) was 27.6%, the viability, T/C (second compound 10 µM, first compound 0.00949 µM) was 15.2% and the viability, T/C (second compound 10 µM, first compound 0.03 µM) was 10.4%. For the same compound, the viability, T/C (second compound 10 µM, first compound 0.0949 µM) was 7.83% and the viability, T/C (second compound 10 µM, first compound 0.3 µM) was 6.4%.
For `Nc1ccccc1NC(=O)c1ccc(CNC(=O)OCc2cccnc2)cc1` + Cc1ccccc1N=Nc1ccc(NC(=O)c2ccnn2C)c(C)c1, the IC50 (second compound 0.1 µM) was 1260 nM, the IC50 (second compound 0.316 µM) was 999 nM and the IC50 (second compound 1 µM) was 992 nM. The IC50 (second compound 3.16 µM) was 1010 nM, the IC50 (second compound 10 µM) was 919 nM and the viability, T/C (second compound 0.1 µM, first compound 0.0316 µM) was 104%. The viability, T/C (second compound 0.1 µM, first compound 0.1 µM) was 97.7%, the viability, T/C (second compound 0.1 µM, first compound 0.316 µM) was 75.7% and the viability, T/C (second compound 0.1 µM, first compound 1 µM) was 64.6%. For the same compound, the viability, T/C (second compound 0.1 µM, first compound 3.16 µM) was 19.4%, the viability, T/C (second compound 0.1 µM, first compound 10 µM) was 5.78% and the viability, T/C (second compound 0.316 µM, first compound 0.0316 µM) was 84.6%. The viability, T/C (second compound 0.316 µM, first compound 0.1 µM) was 85.3%, the viability, T/C (second compound 0.316 µM, first compound 0.316 µM) was 72% and the viability, T/C (second compound 0.316 µM, first compound 1 µM) was 52.1%. For the same compound, the viability, T/C (second compound 0.316 µM, first compound 3.16 µM) was 17.2%, the viability, T/C (second compound 0.316 µM, first compound 10 µM) was 5.9% and the viability, T/C (second compound 1 µM, first compound 0.0316 µM) was 97.7%. It also gave a viability, T/C (second compound 1 µM, first compound 0.1 µM) of 76%, a viability, T/C (second compound 1 µM, first compound 0.316 µM) of 87.2% and a viability, T/C (second compound 1 µM, first compound 1 µM) of 47.6%. It also gave a viability, T/C (second compound 1 µM, first compound 3.16 µM) of 18.5%, a viability, T/C (second compound 1 µM, first compound 10 µM) of 6.58% and a viability, T/C (second compound 3.16 µM, first compound 0.0316 µM) of 86.5%. For the same compound, the viability, T/C (second compound 3.16 µM, first compound 0.1 µM) was 82.5%, the viability, T/C (second compound 3.16 µM, first compound 0.316 µM) was 76.5% and the viability, T/C (second compound 3.16 µM, first compound 1 µM) was 50.1%. For the same compound, the viability, T/C (second compound 3.16 µM, first compound 3.16 µM) was 18.5%, the viability, T/C (second compound 3.16 µM, first compound 10 µM) was 5.98% and the viability, T/C (second compound 10 µM, first compound 0.0316 µM) was 66.4%. It also gave a viability, T/C (second compound 10 µM, first compound 0.1 µM) of 60.9%, a viability, T/C (second compound 10 µM, first compound 0.316 µM) of 68.1% and a viability, T/C (second compound 10 µM, first compound 1 µM) of 48%. The viability, T/C (second compound 10 µM, first compound 3.16 µM) was 17% and the viability, T/C (second compound 10 µM, first compound 10 µM) was 8.83%.
